Patent US4439606A, “Antiatherosclerotic 1-piperazinecarbonyl compounds” (American Cyanamid Company, priority 1982, dated 1984)

What was measured:
[1] = system: serum cholesterol and triglyceride; assay: Lowering of serum lipid levels, oral administration in diet to rats; format: in vivo, male rats COBS, CD, SD strain; settings: 0.1% of test compound by weight in diet, 5 days, vs control rats
Method: The compounds were also tested for their ability to lower lipid levels in mammals. The compounds were administered orally admixed with diet to groups of four male rats COBS, CD, SD strain from Charles River Breeding Laboratories, Inc., Wilmington, Mass. A control group of eight rats was maintained on the diet alone; test groups were maintained on the diet plus 0.1% of test compound by weight. After 5 days treatment, serum cholesterol and triglyceride concentrations were determined by direct enzymatic procedures using a Centrifichem® System 400 autoanalyzer (Union Carbide Co.). Cholesterol concentrations were determined by the combined cholesterol esterasecholesterol oxidase procedure of Roeschlau, et al., Zeit. Klin. Chem. Klin. Biochem., 12, 226 (1974). Triglycerides were determined by the combined method of lipase catalyzed hydrolysis of triglycerides to glycerol and free fatty acids [Bucolo, G. and David, H., Clin. Chem., 19, 476 (1973) and Wahlefeld, A. W., in "Methods of Enzymatic Analysis," Vol, 4, Bergmeyer, H. D., Editor, Academic Press, New York, N.Y. (1974), pp. 1831-1835] and the enzymatic oxidation of the glycerol which leads to the production of colored formazan [Stavropoulos, W. S. and Crouch, R. D., Clin. Chem., 20, No. 7, 857 (1974)]. […] The compounds are considered active if they produce a statistically significant lowering of either sterol or triglycerides.

[2] = target: T1, fatty acyl CoA:-cholesterol acyl transferase (ACAT) (Rattus norvegicus, UniProt O70536); assay: Inhibition of enzymatic esterification of cholesterol (ACAT inhibition), rat adrenal supernatant; format: biochemical; settings: final concentration 5.2 μg./ml., 37° C., 30 minutes
T1 construct: The supernatant, containing the microsomal fraction, served as the source of the cholesterol-esterifying enzyme; from tissue; host or cells: rat adrenals, 1000 x g supernatant containing the microsomal fraction
T1 sequence (O70536 1-545): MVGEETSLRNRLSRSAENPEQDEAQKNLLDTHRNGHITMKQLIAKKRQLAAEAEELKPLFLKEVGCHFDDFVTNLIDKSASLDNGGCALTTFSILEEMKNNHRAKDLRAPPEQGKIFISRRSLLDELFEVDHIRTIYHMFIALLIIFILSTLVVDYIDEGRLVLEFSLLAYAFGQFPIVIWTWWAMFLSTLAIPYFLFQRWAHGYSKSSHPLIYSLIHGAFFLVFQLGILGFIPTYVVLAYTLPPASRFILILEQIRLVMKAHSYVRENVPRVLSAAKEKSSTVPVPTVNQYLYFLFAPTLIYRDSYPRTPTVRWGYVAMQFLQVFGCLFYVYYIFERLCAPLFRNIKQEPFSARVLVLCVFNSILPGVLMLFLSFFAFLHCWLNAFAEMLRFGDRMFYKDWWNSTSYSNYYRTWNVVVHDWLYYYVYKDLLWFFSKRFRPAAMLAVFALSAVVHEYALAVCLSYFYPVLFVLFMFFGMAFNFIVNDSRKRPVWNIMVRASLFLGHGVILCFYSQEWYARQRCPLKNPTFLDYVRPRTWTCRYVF
Method: The compounds of the present invention were tested for their ability to inhibit the enzymatic esterification of cholesterol according to the procedure of Hashimoto, et al., Life Sci., 12(Part II), 1-12 (1973).
Rat adrenals were homogenized in 0.2 M monobasic potassium phosphate buffer, pH 7.4, and centrifuged at 1000 times gravity for 15 minutes at 5° C. The supernatant, containing the microsomal fraction, served as the source of the cholesterol-esterifying enzyme, fatty acyl CoA:-cholesterol acyl transferase (ACAT). A mixture comprising 50 parts of adrenal supernatant, 10 parts of bovine serum albumin (50 mg./ml.), 3 parts of test compound (final concentration 5.2 μg./ml.) and 500 parts of buffer were preincubated at 37° C. for 10 minutes, following which 20 parts of oleoyl […] were added and the final mixture was incubated at 37° C. for 30 minutes. A control mixture, omitting the test compound, was prepared and treated in the same manner. The lipids from the incubation mixture were extracted into an organic solvent and separated by thin-layer chromatography. The cholesterol ester fraction was counted in a scintillation counter. A statistically significant inhibition of the ACAT enzyme is the criterion for activity.

aortic sterol content = assay: Decrease of aortic sterol content without effecting serum sterol in cholesterol-fed cockerels; format: in vivo, Day-old Cockerels; design: key: Active: Compounds which statistically decrease the aortic sterol content without having an effect on serum sterol are considered to be active; settings: 525 mg. test compound and 20 g. cholesterol per kg. of diet, 14 days
Method: The compounds were further tested for their ability to decrease aortic sterol content without effecting serum sterol.
Day-old Cockerels were placed on diets consisting of pullet starter mash supplemented with either 20 g. cholesterol (control group) or 20 g. cholesterol and 525 mg. test compound (drug-treated group) per kg. of diet.
For the control diet, 20 g. of cholesterol was dissolved in 200 ml. of chloroform, mixed into one kg. of pullet starter mash and then the choloroform was removed by evaporation.
For the drug-treatment group, 525 mg. of the test compound was dissolved in 100 ml. of chloroform, mixed into a diet prepared as described above and then the chloroform was evaporated.
The cockerels were housed three per cage and given water and their respective diet ad libitum for 14 days. Blood was collected by cardiac puncture and the serum was saponified [Trinder, P., Analyst, 77, 321 (1952)] and extracted and the cholesterol content determinted [Zlatkis, A., et al., J. Lab Clin Med., 41 486 (1953)]. The aortae were removed, cleaned of adventitial tissue and the sterol content determined according to the above procedures. Compounds which statistically decrease the aortic sterol content without having an effect on serum sterol are considered to be active.

inhibition at 5.2 µg/mL [2] | Compound | % Lowering of Serum Triglycerides [1] | other results
– | O=C(Nc1ccc(Cl)cc1)N1CCN(c2cnccn2)CC1 [4'-Chloro-4-(2-pyrazinyl)-1-piperazinecarboxanilide] | 33% | –
– | O=C(Cc1ccc(Cl)cc1)N1CCN(c2cnccn2)CC1 [1-(p-Chlorophenylacetyl)-4-(2-pyrazinyl)piperazine] | 51% | –
35.4% | CC(C)(C)NC(=O)N1CCN(c2cnccn2)CC1 [N--tert.-Butyl-4-(2-pyrazinyl)-1-piperazinecarboxamide] | – | –
30.6% | O=C(O)c1ccc(NC(=O)N2CCN(c3cnccn3)CC2)cc1 [p-[4-(2-Pyrazinyl)-1-piperazinecarboxamide]-benzoic acid] | – | –
33.6% | CCCCCCCC(=O)N1CCN(c2cnccn2)CC1 [1-octanoyl-4-(2-pyrazinyl)piperazine, 1-Octanoyl-4-(2-pyrazinyl)piperazine] | – | –
73.3% | O=C(Cc1ccccc1)N1CCN(c2ccc(Cl)cc2)CC1 [1-(p-Chlorophenyl)-4-phenylacetylpiperazine] | – | –
32.6% | Cc1ccccc1CC(=O)N1CCN(c2nccs2)CC1 [1-(2-Thiazolyl)-4-o-tolylacetylpiperazine] | – | –
47.4% | O=C(CCCCC(=O)N1CCN(c2cnccn2)CC1)c1ccc(Cl)cc1 [1-[5-(p-Chlorobenzoyl)valeryl]-4-(2-pyrazinyl)piperazine] | 45% | –
– | O=C(C1CC1)N1CCN(c2cnccn2)CC1 [1-Cyclopropylcarbonyl-4-(2-pyrazinyl)piperazine] | 37% | –
39.7% | CC(C)(C)c1ccc(C(=O)N2CCN(c3cnccn3)CC2)cc1 [1-(p-tert.-Butylbenzoyl)-4-(2-pyrazinyl)piperazine] | – | –
– | O=C(Cc1cccc(Cl)c1)N1CCN(c2cnccn2)CC1 [1-(m-Chlorophenylacetyl)-4-(2-pyrazinyl)piperazine] | 46% | –
– | Cc1cccc(CC(=O)N2CCN(c3cnccn3)CC2)c1 [1-(2-Pyrazinyl)-4-(m-tolylacetyl)piperazine] | 40% | –
– | CNC(=O)N1CCN(c2cnccn2)CC1 [N--Methyl-4-(2-pyrazinyl)-1-piperazinecarboxamide] | 38% | –
– | O=C(c1ccccc1C(F)(F)F)N1CCN(c2cnccn2)CC1 [1-(2-Pyrazinyl)-4-(α,α,α-trifluoro-o-toluoyl)piperazine] | – | Result (decrease of aortic sterol content without effect on serum sterol) (aortic sterol content): Active
54.1% | CC(C)(Oc1ccc(Cl)cc1)C(=O)N1CCN(c2cnccn2)CC1 [1-[2-(p-Chlorophenoxy)-2-methylpropionyl]-4-(2-pyrazinyl)piperazine] | 42% | –
– | CCNC(=O)N1CCN(c2cnccn2)CC1 [N--Ethyl-4-(2-pyrazinyl)-1-piperazinecarboxamide] | 43% | –

inhibition at 5.2 µg/mL [2] | Compound | % Lowering of Serum Triglycerides [1] | other results
38.1% | COc1cncc(N2CCN(C(=O)Cc3ccccc3)CC2)n1 [1-(6-Methoxy-2-pyrazinyl)-4-phenylacetylpiperazine] | 56% | –
– | O=C(Nc1c(Cl)cccc1Cl)N1CCN(c2cnccn2)CC1 [2',6'-Dichloro-4-(2-pyrazinyl)-1-piperazinecarboxanilide] | – | Result (decrease of aortic sterol content without effect on serum sterol) (aortic sterol content): Active
– | Cc1ccc(CC(=O)N2CCN(c3cnccn3)CC2)cc1 [1-(2-Pyrazinyl)-4-(p-tolylacetyl)piperazine] | 49% | Result (decrease of aortic sterol content without effect on serum sterol) (aortic sterol content): Active
68.9% | O=C(CCCCCc1ccc(Cl)cc1)N1CCN(c2cnccn2)CC1 [1-[6-(p-Chlorophenyl)hexanoyl]-4-(2-pyrazinyl)piperazine] | 30% | –
– | O=C(c1ccccc1)N1CCN(c2cnccn2)CC1 [1-benzoyl-4-(2-pyrazinyl)piperazine, 1-Benzoyl-4-(2-pyrazinyl)piperazine] | 30% | –
31.2% | O=C(c1c(F)c(F)c(F)c(F)c1F)N1CCN(c2cnccn2)CC1 [1-Pentafluorobenzoyl-4-(2-pyrazinyl)piperazine] | – | –
– | O=C(Cc1ccccc1)N1CCN(Cc2cccnc2)CC1 [1-Phenylacetyl-4-(3-pyridylmethyl)piperazine] | 34% | –
88.1% | CC1CN(C(=O)Cc2ccccc2)CCN1c1ccc(Cl)cc1 (stereo not shown) [1-(p-Chlorophenyl)-2-methyl-4-phenylacetylpiperazine] | 61% | –
30.5% | CC(Oc1ccccc1)C(=O)N1CCN(c2cnccn2)CC1 (stereo not shown) [1-(2-Phenoxypropionyl)-4-(2-pyrazinyl)piperazine] | 62% | –
40.1% | O=C(Cc1ccccc1)N1CCN(c2cnc3ccccc3n2)CC1 [1-Phenylacetyl-4-(2-quinoxalinyl)piperazine] | – | –
32.2% | O=C(Cc1ccc(Cl)cc1Cl)N1CCN(c2cnccn2)CC1 [1-(2,4-Dichlorophenylacetyl)-4-(2-pyrazinyl)piperazine] | 44% | –
– | O=C(N1CCN(c2cnccn2)CC1)C(F)(F)C(F)(F)C(F)(F)F [1-Heptafluorobutyroyl-4-(2-pyrazinyl)piperazine] | 51% | –
42.2% | CCOC(=O)c1ccc(NC(=O)N2CCN(c3cnccn3)CC2)cc1 [Ethyl-p-[4-(2-pyrazinyl)-1-piperazinecarboxamido]benzoate] | – | –
– | Cc1ccccc1CC(=O)N1CCN(c2cnccn2)CC1 [1-(2-Methylphenylacetyl)-4-(2-pyrazinyl)piperazine] | 55% | –
– | Cc1ccccc1CC(=O)N1CCN(c2cnccn2)CC1 [1-(o-Methylphenylacetyl)-4-(2-pyrazinyl)piperazine] | – | Result (decrease of aortic sterol content without effect on serum sterol) (aortic sterol content): Active
– | O=C(c1cccnc1)N1CCN(c2cnccn2)CC1 [1-(2-Pyrazinyl)-4-(3-pyridylcarbonyl)piperazine] | 30% | –

Compound | inhibition at 5.2 µg/mL [2] | % Lowering of Serum Triglycerides [1] | other results
O=C(N1CCN(c2cnccn2)CC1)C(F)(F)C(F)(F)C(F)(F)C(F)(F)C(F)(F)C(F)(F)C(F)(F)F [1-(Pentadecafluorooctanoyl)-4-(2-pyrazinyl)piperazine] | 39% | 74% | % Lowering of Serum Sterol [1]: 47%
O=C(Cc1ccccc1)N1CCN(c2ccc3ccccc3n2)CC1 [1-phenylacetyl-4-(2-quinolyl)piperazine, 1-Phenylacetyl-4-(2-quinolyl)piperazine] | 89.7% | 53% | % Lowering of Serum Sterol [1]: 69%
